Data set [1] concerns 293T cells. Description: Fluorescence detection of Fluc-mRNA (transfection efficiency) of LNP preparations. In kind it is cell-based. Conditions: for Relative light unit (RLU): LNP with 0.3 μg Fluc-mRNA, 96-well plate, 24 hours. As to the method: (§1) Cell recovery and passage: 293T cells were recovered and cultured in culture dishes. The cells were passaged until the required number of cells was obtained.
(§2) Seeding plates: The cells in culture dishes were digested and counted, then seeded in a 96-well plate at 10,000 cells per well and seeded in a 12-well plate at 150,000 cells per well. The cells were cultured overnight until cell adhesion.
(§3) The cationic lipids listed in Table 2 were each mixed with DSPC (AVT (Shanghai) Pharmaceutical Technology Co., Ltd.), cholesterol (AVT (Shanghai) Pharmaceutical Technology Co., Ltd.), and DMG-PEG2000 in a molar ratio of 49:10:39.5:1.5 and dissolved in ethanol to prepare ethanol lipid solutions. Using the ethanol injection method, the ethanol lipid solutions were quickly added to a citrate buffer (pH between 4 and 5), and vortexed for 30 seconds for later use. eGFP-mRNA (purchased from Shanghai BioHub Biotechnology Co., Ltd.), Fluc-mRNA (purchased from Shanghai BioHub Biotechnology Co., Ltd.), or Cy5 fluorescently labeled Leqvio (purchased from Sangon Biotech (Shanghai) Co., Ltd.) was diluted in a citrate buffer (pH between 4 and 5) to obtain an mRNA aqueous solution. A certain volume of the lipid solution and the mRNA aqueous solution were mixed to prepare liposomes at a total lipid-to-mRNA weight ratio of 15:1. The mixtures were sonicated at 25° C. for 15 minutes (ultrasonic frequency: 40 kHz, ultrasonic power: 800 W). The resulting liposomes were diluted 10-fold with PBS, followed by ultrafiltration using a 300 kDa ultrafiltration tube to remove ethanol. After adjusting the volume with PBS, LNP preparations encapsulating eGFP-mRNA or Fluc-mRNA were obtained, using cationic lipids, DSPC, cholesterol, and DMG-PEG2000 at a molar ratio of 49:10:39.5:1.5.
(§4) Cell recovery and passage: The method was the same as described in Example 3.
(§5) Seeding plates: The method was the same as described in Example 3.
LNP preparations containing 0.3 μg of Fluc-mRNA (with the vector components of the LNP preparations of cationic lipids, DSPC, cholesterol, and DMG-PEG2000 in a molar ratio of 49:10:39.5:1.5, where the cationic lipids are those listed in Table 1) were added to the cell culture medium in a 96-well plate. After 24 hours of continued culture, the corresponding reagents were added according to the instructions in the Gaussia Luciferase Assay Kit. Fluorescence intensity in each well was detected using the IVIS fluorescence detection system. The transfection efficiency of LNP preparations prepared with a series of cationic lipid compounds designed in the present disclosure, as well as cationic lipids from the prior art, including SM-102, HHMA, MC3, compound 7, and I-1, is shown in Table 4.

Data set [2] can be described thus: Particle size and polydispersity index (PDI) of lipid nanoparticles, dynamic light scattering. In kind it is physicochemical. Conditions: LNP preparation with the named cationic lipid; 90° scattering angle, 25° C.
Excerpt: as §3
The particle size and polydispersity index (PDI) were measured using dynamic light scattering with a Malvern laser diffraction particle size analyzer.
10 μL of liposome solution was diluted to 1 mL with RNase-free deionized water and added to the sample cell. Each sample was measured three times. The measurement conditions were as follows: 90° scattering angle, 25° C.

The test system of a further data set is female BALB/C mice. In words: Expression of delivered mRNA in mice in vivo (IVIS in vivo imaging). Particulars: 10 μg Fluc-mRNA via tail vein. Here is the method: LNP preparations containing 10 μg of Fluc-mRNA were injected via the tail vein into female BALB/C mice (4 to 6 weeks old, weighing 17 to 19 g). At specified time points after administration (6 h, 24 h, 48 h, and 7 d), the mice were intraperitoneally injected with fluorescent imaging substrates and allowed to move freely for 5 minutes. The average radiation intensity (corresponding to fluorescence intensity) of proteins expressed by the mRNA delivered by the LNP preparations in the mice in vivo was then detected using the IVIS Spectrum small-animal in vivo imaging system.

The test system of data set [3] is 293T cells. Description: Cell viability assay (CCK-8) with LNP preparations of Fluc-mRNA. Particulars: LNP with 1.5 μg Fluc-mRNA, 24 hours, CCK-8. It is filed as cell-based. Here is the method:
as §1, §2, §3, §4, §5
LNP preparations containing 1.5 μg of Fluc-mRNA (with the vector components of the LNP preparations of cationic lipids, DSPC, cholesterol, and DMG-PEG2000 in a molar ratio of 49:10:39.5:1.5, where the cationic lipids are those listed in Table 1) were added to the cell culture medium in a 96-well plate. After 24 hours of continued culture, 10 μL of CCK-8 solution was added to each well, and the culture plate was incubated in an incubator for 1 hour.

For the compound `CCCCCCCCC(CCCCCC)COC(=O)CCCCCN(CCCCCC(=O)OCC(CCCCCC)CCCCCCCC)CCN(CCO)c1ccccc1` (stereo not drawn) [Compound 7, bis(2-hexyldecyl) 6,6′-((2-((2-hydroxyethyl) (phenyl)amino)ethyl)azanediyl)dihexanoate, reference compound], the “Relative light unit (RLU)” value with 293T cells [1] is listed as 257490 RLU. In data set [2], this compound displayed a PDI of 14.3%. Moreover, the Particle size in data set [2] came to 162 nm. Moreover, the “Average radiation intensity, in vivo imaging” value is given as 1847654 with female BALB/C mice (6 h), 185473 with female BALB/C mice (24 h), 96543 with female BALB/C mice (48 h) and 8511 in the data set on female BALB/C mice (7 d). The Cell viability with 293T cells [3] was 73%.
For the compound `CCCCCCCCCCCCC(O)CN(C)CCCCCC(=O)OCC(CCCCCC)CCCCCCCC` (stereo not drawn) [HHMA, reference compound], the “Relative light unit (RLU)” value in the data set with 293T cells [1] was 1011156 RLU. In data set [2], the PDI is given as 16.3% and the Particle size amounted to 146 nm. For the same compound, in the data set with 293T cells [3], the Cell viability is 77%.
In the case of `CCCCCCCCC(CCCCCC)COC(=O)CCCCCN(CCCCCC(=O)OCC(CCCCCC)CCCCCCCC)CCCCC(=O)OCc1ccccc1.I` (stereo not drawn) [I-1, bis(2-hexyldecyl) 6,6′-((5-(benzyloxy)-5-oxopentyl)azanediyl)dihexanoate, reference compound], the “Relative light unit (RLU)” value in the data set with 293T cells [1] was found to be 202730 RLU. Further, in data set [2], the PDI is reported as 16.2% and the Particle size was found to be 158 nm. This compound also registered a Cell viability in the data set with 293T cells [3] of 68%.
On the same counts, the results for `CCCCC/C=C\C/C=C\CCCCCCCCC(CCCCCCCC/C=C\C/C=C\CCCCC)OC(=O)CCCN(C)C` [MC3, reference compound] are 94904 RLU, 15.7%, 151 nm and 74%.
On the same counts, the results for `CCCCCCCCCCC(CCCCCCCCCC)CCCOC(=O)CCCCCNC(CO)(CO)CCc1ccc(CCCCCCCC)cc1` [YK-901, 4-decyltetradecyl 6-((1-hydroxy-2-(hydroxymethyl)-4-(4-octylphenyl)butan-2-yl)amino) hexanoate] are 43423 RLU, 17.4%, 162 nm and 58%.
`CCCCCCCCCCC(CCCCCCCCCC)CCCOC(=O)CCCNC(CO)(CO)CCc1ccc(CCCCCCCC)cc1` [YK-902, 4-decyltetradecyl 4-((1-hydroxy-2-(hydroxymethyl)-4-(4-octylphenyl)butan-2-yl)amino) butanoate]: the “Cellular transfection efficiency, times that of HHMA” value in the data set with 293T cells [1] (Fluc-mRNA LNP, vs HHMA) stood at 0.31 times. In addition, the “Cellular transfection efficiency, times that of I-1” value in the data set on 293T cells [1] (Fluc-mRNA LNP, vs I-1) amounted to 1.53 times. The “Cellular transfection efficiency, times that of MC3” value with 293T cells [1] (Fluc-mRNA LNP, vs MC3) came out at 3.28 times. Besides, the “Cellular transfection efficiency, times that of SM-102” value with 293T cells [1] (Fluc-mRNA LNP, vs SM-102) was 0.22 times. The “Cellular transfection efficiency, times that of YK-501” value with 293T cells [1] (Fluc-mRNA LNP, vs YK-501) is on record as 6.73 times. In addition, the “Cellular transfection efficiency, times that of YK-506” value with 293T cells [1] (Fluc-mRNA LNP, vs YK-506) stood at 0.48 times. For the same compound, the “Cellular transfection efficiency, times that of compound 7” value in the data set with 293T cells [1] (Fluc-mRNA LNP, vs compound 7) is given as 1.21 times. Further, in the data set on 293T cells [1], the “Relative light unit (RLU)” value is listed as 311132 RLU. Besides, in data set [2], the PDI was determined as 12.4% and the Particle size is reported as 142 nm. Besides, in the data set with 293T cells [3], the Cell viability is 36%.
For `CCCCCCCCCCOC(=O)CCCNC(CO)(CO)CCc1ccc(CCCCCCCC)cc1` [YK-903, decyl 4-((1-hydroxy-2-(hydroxymethyl)-4-(4-octylphenyl)butan-2-yl)amino) butanoate], the “Relative light unit (RLU)” value in the data set on 293T cells [1] is given as 25006 RLU. In data set [2], the PDI is listed as 15.1% and the Particle size is reported as 152 nm. This compound also registered a Cell viability in the data set on 293T cells [3] of 47%.
In the case of `CCCCCCCCCCCOC(=O)CCCCCCNC(CO)(CO)CCc1ccc(CCCCCCCC)cc1` [YK-904, undecyl 7-((1-hydroxy-2-(hydroxymethyl)-4-(4-octylphenyl)butan-2-yl)amino) heptanoate], in the data set on 293T cells [1], the “Relative light unit (RLU)” value is given as 125048 RLU. Moreover, in data set [2], the PDI stood at 8.2%. This compound returned a Particle size in data set [2] of 112 nm. The “Average radiation intensity, in vivo imaging” value in the data set on female BALB/C mice (6 h) was found to be 1116384; with female BALB/C mice (24 h), 115355; with female BALB/C mice (48 h), 28552; with female BALB/C mice (7 d), 3243. In the data set on 293T cells [3], this compound yielded a Cell viability of 52%.
As to `CCCCCCCCCCCOC(=O)CCCCCNC(CO)(CO)CCc1ccc(CCCCCCCC)cc1` [YK-905, undecyl 6-((1-hydroxy-2-(hydroxymethyl)-4-(4-octylphenyl)butan-2-yl)amino) hexanoate], the “Relative light unit (RLU)” value in the data set on 293T cells [1] came to 72425 RLU. In data set [2], the PDI came out at 16.9% and the Particle size worked out at 135 nm. The Cell viability in the data set with 293T cells [3] is 51%.
Turning to `CCCCCCCCCCOC(=O)CCCN(CCCCCC(=O)OCC(CCCCCCCC)CCCCCCCC)CCNC(CO)(CO)CCc1ccc(CCCCCCCC)cc1` [YK-906, 2-octyldecyl 6-((4-(decyloxy)-4-oxobutyl) (2-((1-hydroxy-2-(hydroxymethyl)-4-(4-octylphenyl)butan-2-yl)amino)ethyl)amino) hexanoate], the “Relative light unit (RLU)” value in the data set on 293T cells [1] is given as 27546 RLU. Besides, in data set [2], the PDI is 10.2% and the Particle size is 124 nm. Moreover, the Cell viability in the data set with 293T cells [3] stood at 63%.
On the same counts, the results for `CCCCCCCCCCCCCCNC(=O)CCCCCNC(CO)(CO)CCc1ccc(CCCCCCCC)cc1` [YK-907, 6-((1-hydroxy-2-(hydroxymethyl)-4-(4-octylphenyl)butan-2-yl)amino)-N-tetradecylhexanamide] are 37699 RLU, 16.2%, 159 nm and 73%.
The corresponding values for `CCCCCCCCc1ccc(CCC(CO)(CO)NCCCCCCC(=O)OCC(CCCCCCCC)CCCCCCCC)cc1` [YK-911, 2-octyldecyl 7-((1-hydroxy-2-(hydroxymethyl)-4-(4-octylphenyl)butan-2-yl)amino) heptanoate] are 1299055 RLU, 10.4%, 136 nm and 62%.

The values above are taken from US20250326708A1, “LONG-ACTING SPLEEN-TARGETING CATIONIC LIPID COMPOUND COMPRISING BENZENE RING STRUCTURE, COMPOSITION COMPRISING SAME, AND USE THEREOF” (Beijing Youcarekechuang Pharmaceutical Technology Co., Ltd., priority 2024, published 2025).
